Reference: patent US9527894B2, “Polymutant tau protein variants and their use for recapitulating human tauopathies” (Universitaet Leipzig, priority 2011, dated 2016)

Assays:
[1] = system: Hyper-tau expressing SH-SY5Y cells; experiment: impedance spectroscopy based functional tau pathology in vitro screening assay (Hyper-tau cells); assay type: cell-based, human
Method: FIG. 6: Use of Hyper-tau cells for quantitative detection of compound efficiency. Taking the developed Hyper-tau cells, where pathology was induced by differentiation (20 nM staurosporine for 48 h) in comparison to the wildtype tau expressing cells (physiological condition) the efficiency of potential active pharmaceutical ingredients could be quantified.
Human neuroblastoma SH-SY5Y cells were grown in DMEM medium, supplemented with 15% fetal bovine serum (FBS), non-essential amino acids, glutamax and penicillin/streptomycine (Invitrogen). Differentiation of SH-SY5Y cells was induced by incubation of the SH-SY5Y cells with 20 nM stauropsprin (Sigma-Aldrich) for 48 hours. […]
Cells were cultured on self-developed 96-well arrays comprising a gold electrode at the culture surface. […] Impedance spectra were recorded with a self developed multiplexer unit for the 96-well arrays and an impedance Analyser Agilent 4294A (Agilent Technologies) with an alternating voltage of 10 mV with frequencies from 500 Hz to 5 MHz (0 mV bias between electrodes). For each experiment at least five wells were measured in replicate. All impedance magnitude spectra were analysed with a self-developed software IDAT (Impedance Data Analysing Tool). […]

tau hyperphosphorylation = details: artificial hyperphosphorylation using toxic compounds like okadaic acid; cited from earlier work
tauopathy mouse model = details: LeCorre et al. 2006, Selenica et al. 2007; cited from earlier work
[2] = system: tau mutant expressing SH-SY5Y cells; experiment: impedimetric detection of okadaic acid induced artificial hyperphosphorylation; assay type: cell-based, human; details: 25 nM
Method: FIG. 4: Impedimetric detection of consequences by okadaic acid induced artificial hyperphosphorylation. […] (n=3, 2D-ANOVA, Bonferoni post-hoc test, *p<0.05, **p<0.01, ***p<0.001)
(§1) Human neuroblastoma SH-SY5Y cells were grown in DMEM medium, supplemented with 15% fetal bovine serum (FBS), non-essential amino acids, glutamax and penicillin/streptomycine (Invitrogen). Differentiation of SH-SY5Y cells was induced by incubation of the SH-SY5Y cells with 20 nM stauropsprin (Sigma-Aldrich) for 48 hours. For the appropriate experiments differentiated cells were treated with okadaic acid (Sigma-Aldrich) in a concentration of 25 nM or in case of reference compound testing with SRN-003-556 and AR-A014418, respectively.
Cells were cultured on self-developed 96-well arrays comprising a gold electrode at the culture surface. The SH-SY5Y cells were differentiated for 48 hours on the 96-well arrays. Impedance spectra were recorded with a self developed multiplexer unit for the 96-well arrays and an impedance Analyser Agilent 4294A (Agilent Technologies) with an alternating voltage of 10 mV with frequencies from 500 Hz to 5 MHz (0 mV bias between electrodes). For each experiment at least five wells were measured in replicate. All impedance magnitude spectra were analysed with a self-developed software IDAT (Impedance Data Analysing Tool). […]

[3] = system: MC1-positive (abnormal conformation) tau in SH-SY5Y cell lines; experiment: Western blot detection of abnormal tau conformation with MC1 antibody; assay type: cell-based, human; details: undifferentiated neuroblastoma cell lines
From the text: FIG. 2: Abnormal tau conformation in polymutant tau cell lines. Poly-mutant tau variants were developed and, using those variants, poly-mutant neuroblastoma cell lines were produced. In those cell lines tau adopting an abnormal/pathological conformation under physiological conditions was observed (MC1 abnormal tau). […] Corroborating recent results that phosphorylation may stabilize abnormal conformation the amount of MC1-positive tau species could be decreased by treating the cells with a tau kinase inhibitor (SRN-003-556). […]
Cells were harvested and protease as well as phosphatase inhibitor cocktail (Sigma-Aldrich) was added. Proteins were extracted by sonification (Hielscher GmbH) and protein concentration was determined using the Roti-Nanoquant Assay (Carl-Roth GmbH). Laemmli sample buffer was added to 60 μg cell lysate. Samples were separated on 10% SDS-polyacrylamide gel and electro transferred onto polyvinylidene fluoride membranes and subsequently immunolabeled with anti-MC1 specific antibody (Peter Davis Department of Pathology, Albert Einstein College of Medicine, 1:100) at 4° C. over night. Secondary antibody was horseradish peroxidase conjugated (Dianova, 1:5000). Specific protein signals were detected using Chemiluminescence Detection Kit (MobiTec) and ChemiDoc-XRS (BioRad). […]

SH-SY5Y cells = experiment: impedimetric monitoring of differentiated wildtype and poly-mutant tau expressing cells; assay type: cell-based, human; details: differentiated 48 h with 20 nM staurosporine, then monitored 24 h; compared to wildtype tau cells
Method: FIG. 5: Differentiation induces neurodegeneration in poly-mutant tau expressing SH-SY5Y cells. Differentiation of SH-SY5Y cells were induced by 48 h incubation with 20 nM staurosporine. Afterwards the cells were impedimetrically monitored for 24 h. […] (n=4, 2D-ANOVA, Bonferoni post-hoc test, *p<0.05, **p<0.01)
as §1
Cells were cultured on self-developed 96-well arrays comprising a gold electrode at the culture surface. The SH-SY5Y cells were differentiated for 48 hours on the 96-well arrays. Impedance spectra were recorded with a self developed multiplexer unit for the 96-well arrays and an impedance Analyser Agilent 4294A (Agilent Technologies) with an alternating voltage of 10 mV with frequencies from 500 Hz to 5 MHz (0 mV bias between electrodes). For each experiment at least five wells were measured in replicate. All impedance magnitude spectra were analysed with a self-developed software IDAT (Impedance Data Analysing Tool). IDAT calculates the impedance of cell-covered electrodes relative to electrodes without cells (relative impedance: (|Z|covered-|Z|cell-free)/|Z|cell-free×100%) and determine the and select the frequency where impedance change caused by the cell layer is maximum (for SH-SY5Y cells on 96-well array at about 100 kHz). […] Experiments were repeated at least three times. […]

[4] = system: SH-SY5Y neuroblastoma cell lines; experiment: formation of abnormal tau aggregates after differentiation (EGFP-tau imaging); assay type: cell-based, human; details: after induction of differentiation (20 nM staurosporine), without toxic cofactors
Method: FIG. 1: Abnormal tau aggregation in a hyper-mutated tau expressing cell line.
as §1

Molecule: COc1ccc(CNC(=O)Nc2ncc([N+](=O)[O-])s2)cc1 [AR-A014418]
- side effects detected by impedimetric monitoring ([1]; 6 h and 12 h, 0.1 nM-100 nM): toxic effects
- therapeutic effect on Hyper-tau induced pathology (impedance) ([1]; Hyper-tau cells differentiated with 20 nM staurosporine for 48 h, compared to wildtype tau cells): no therapeutic effect
- therapeutic effect in okadaic acid based tau pathology in vitro assays (tau hyperphosphorylation): therapeutic effect
- therapeutic effect in tauopathy mouse model (tauopathy mouse model): does not

Molecule: C=C1[C@@H](O)[C@@H]2O[C@]3(CC[C@H](/C=C/[C@@H](C)[C@@H]4CC(C)=C[C@@]5(O[C@H](C[C@@](C)(O)C(=O)O)CC[C@H]5O)O4)O3)CC[C@H]2O[C@@H]1[C@@H](O)C[C@H](C)[C@H]1O[C@@]2(CCCCO2)CC[C@H]1C [okadaic acid]
- impedimetric effect of okadaic acid incubation ([2]; 3 h and 6 h): Hyper-tau mutant specific degenerative effect
- impedimetric effect of okadaic acid incubation ([2]; after 24 h): massive cell damage in all tau mutants

Molecule: Hyper-tau: 5× polymutant tauK257T/ΔK280/P301L/V337M/R406W, SEQ ID NO:3
- MC1-detected misfolded tau species [3]: abnormally conformed, misfolded tau species
- relative impedance of tau variant expressing cells (SH-SY5Y cells): still more substantial decrease of relative impedance
- formation of abnormal tau aggregates [4]: formation of abnormal tau aggregates

Molecule: K257Tq: 4× polymutant tauK257T/P301L/V337M/R406W
- relative impedance of tau variant expressing cells (SH-SY5Y cells): lower impedance values

Molecule: P301L: single mutant tau (P301L)
- relative impedance of tau variant expressing cells (SH-SY5Y cells): same impedimetric characteristic like the wildtype tau expressing cells
